Legend:
Assay type in all cases: cell-based, human
[1] = system: MDA-MB-231 cell line; assay: MTT cytotoxicity assay, MDA-MB-231 breast cancer cells; settings: for IC50: MTT, 48 h incubation; for Selectivity index SI MDA-MB-231: IC50(BJ)/IC50(MDA-MB-231)
Method: (§1) Cytotoxicity of tested compounds was evaluated against breast cancer cell lines (MDA-MB-468, MDA-MB-231, MCF-7, and T47D) and normal human fibroblast BJ cell line as a control. All tested cell lines were obtained from the American Type Culture Collection (ATCC, Manassas, VA, USA). MDA-MB-468 and MDA-MB-231 were cultured in F12-K medium (Corning, New York City, NY, USA), MCF-7 and BJ in EMEM medium (Corning, New York City, NY, USA), and T47D in RPMI medium (Corning, New York City, NY, USA). All of these culture media were supplemented with 10% heat-inactivated FBS (PAN-Biotech, Aidenbach, Germany) and antibiotics (100 U/mL of penicillin, 100 μg/mL of streptomycin, and 0.25 μg/mL amphotericin B, respectively; Sigma-Aldrich, St. Louis, MO, USA) in a humidified 5% CO2 atmosphere at 37 °C. The cells were used exclusively for 10 passages.
(§2) The cells were seeded in 96-well plates at a concentration of 5 × 10^4 cells/mL and incubated at 37 °C with 5% CO2 air. When 70–80% culture confluence was achieved the tested compounds were added. […] The cell viability assessment was measured using the MTT assay (Invitrogen, Waltham, MA, USA) based on the ability of living cells to reduce […] tetrazolium salt, by cellular dehydrogenases, to water-insoluble purple formazan crystals. MTT solution (4 mg/mL) was added to the culture after 48 h of incubation with the tested compounds. Following 4 h of incubation, the medium with MTT salt was removed and the obtained crystals were dissolved in DMSO. The solution absorbency was measured at 570 nm using a PowerWave™ microplate spectrophotometer (Bio-Tek Instruments, Winooski, VT, USA). Each experiment was performed twice with measurement in triplicate. The IC50 values were determined using the AAT Bioquest IC50 calculator with a four parameter logistic regression model (AAT Bioquest, Inc. Pleasanton, CA, USA (14 April 2024). Quest Graph™ IC50 Calculator. AAT Bioquest. https://www.aatbio.com/tools/ic50-calculator, accessed on 12 October 2024).

[2] = system: T47D cell line; assay: MTT cytotoxicity assay, T47D breast cancer cells; settings: for IC50: MTT, 48 h incubation; for Selectivity index SI T47D: IC50(BJ)/IC50(T47D)
Method: as §1, §2

[3] = system: MCF-7 cell line; assay: MTT cytotoxicity assay, MCF-7 breast cancer cells; settings: for IC50: MTT, 48 h incubation; for Selectivity index SI MCF-7: IC50(BJ)/IC50(MCF-7)
Method: as §1, §2

[4] = system: MDA-MB-468 cell line; assay: MTT cytotoxicity assay, MDA-MB-468 breast cancer cells; settings: for IC50: MTT, 48 h incubation; for Selectivity index SI MDA-MB-468: IC50(BJ)/IC50(MDA-MB-468)
Method: as §1, §2

## O=C1C(=CN2CCN(c3cccc(F)c3)CC2)SC(=S)N1c1ccccc1 [Compound 16, 5-{[4-(3-Fluorophenyl)piperazin-1-yl]methylidene}-3-phenyl-2-thioxo-1,3-thiazolidin-4-one]
[1]; Homo sapiens, MDA-MB-231
  IC50: 179 µM
[1]
  Selectivity index SI MDA-MB-231: 1.12
[2]; Homo sapiens, T47D
  IC50: > 200 µM
[2]
  Selectivity index SI T47D: 1
[3]; Homo sapiens, MCF7
  IC50: > 200 µM
[3]
  Selectivity index SI MCF-7: 1
[4]; Homo sapiens, MDA-MB-468
  IC50: > 200 µM
[4]
  Selectivity index SI MDA-MB-468: 1

## O=C1NC(=S)SC1=CN1CCN(c2ccc(Cl)c(Cl)c2)CC1 [Compound 10, 5-{[4-(3,4-Dichlorophenyl)piperazin-1-yl]methylidene}-2-thioxo-1,3-thiazolidin-4-one]
[1]; Homo sapiens, MDA-MB-231
  IC50: 105 µM
[1]
  Selectivity index SI MDA-MB-231: 1.90
[2]; Homo sapiens, T47D
  IC50: 91 µM
[2]
  Selectivity index SI T47D: 2.2
[3]; Homo sapiens, MCF7
  IC50: 31 µM
[3]
  Selectivity index SI MCF-7: 6.45
[4]; Homo sapiens, MDA-MB-468
  IC50: 55 µM
[4]
  Selectivity index SI MDA-MB-468: 3.63

## O=C1C(=CN2CCN(c3ccc(Cl)cc3)CC2)SC(=S)N1c1ccccc1 [Compound 13, 5-{[4-(4-Chlorophenyl)piperazin-1-yl]methylidene}-3-phenyl-2-thioxo-1,3-thiazolidin-4-one]
[1]; Homo sapiens, MDA-MB-231
  IC50: 145 µM
[1]
  Selectivity index SI MDA-MB-231: 1.38
[2]; Homo sapiens, T47D
  IC50: > 200 µM
[2]
  Selectivity index SI T47D: 1
[3]; Homo sapiens, MCF7
  IC50: 67 µM
[3]
  Selectivity index SI MCF-7: 2.99
[4]; Homo sapiens, MDA-MB-468
  IC50: 179 µM
[4]
  Selectivity index SI MDA-MB-468: 1.12

## O=C1C(=CN2CCN(c3cccc(Cl)c3)CC2)SC(=S)N1c1ccccc1 [Compound 14, 5-{[4-(3-Chlorophenyl)piperazin-1-yl]methylidene}-3-phenyl-2-thioxo-1,3-thiazolidin-4-one]
[1]; Homo sapiens, MDA-MB-231
  IC50: > 200 µM
[1]
  Selectivity index SI MDA-MB-231: 1
[2]; Homo sapiens, T47D
  IC50: > 200 µM
[2]
  Selectivity index SI T47D: 1
[3]; Homo sapiens, MCF7
  IC50: > 200 µM
[3]
  Selectivity index SI MCF-7: 1
[4]; Homo sapiens, MDA-MB-468
  IC50: > 200 µM
[4]
  Selectivity index SI MDA-MB-468: 1

## O=C1C(=CN2CCN(C(c3ccc(F)cc3)c3ccc(F)cc3)CC2)SC(=S)N1c1ccccc1 [Compound 15, 5-({4-[Bis(4-fluorophenyl)methyl]piperazin-1-yl}methylidene)-3-phenyl-2-thioxo-1,3-thiazolidin-4-one]
[1]; Homo sapiens, MDA-MB-231
  IC50: 76 µM
[1]
  Selectivity index SI MDA-MB-231: 2.63
[2]; Homo sapiens, T47D
  IC50: 189 µM
[2]
  Selectivity index SI T47D: 1.06
[3]; Homo sapiens, MCF7
  IC50: 45 µM
[3]
  Selectivity index SI MCF-7: 4.44
[4]; Homo sapiens, MDA-MB-468
  IC50: 47 µM
[4]
  Selectivity index SI MDA-MB-468: 4.26

## COc1cccc(N2CCN(C=C3SC(=S)NC3=O)CC2)c1 [Compound 11, 5-{[4-(3-Methoxyphenyl)piperazin-1-yl]methylidene}-2-thioxo-1,3-thiazolidin-4-one]
[1]; Homo sapiens, MDA-MB-231
  IC50: 160 µM
[1]
  Selectivity index SI MDA-MB-231: 1.25
[2]; Homo sapiens, T47D
  IC50: > 200 µM
[2]
  Selectivity index SI T47D: 1
[3]; Homo sapiens, MCF7
  IC50: > 200 µM
[3]
  Selectivity index SI MCF-7: 1
[4]; Homo sapiens, MDA-MB-468
  IC50: 92 µM
[4]
  Selectivity index SI MDA-MB-468: 2.17

## O=C1NC(=S)SC1=CN1CCN(c2cccc(Cl)c2)CC1 [Compound 7, 5-{[4-(3-Chlorophenyl)piperazin-1-yl]methylidene}-2-thioxo-1,3-thiazolidin-4-one]
[1]; Homo sapiens, MDA-MB-231
  IC50: 157 µM
[1]
  Selectivity index SI MDA-MB-231: 1.27
[2]; Homo sapiens, T47D
  IC50: > 200 µM
[2]
  Selectivity index SI T47D: 1
[3]; Homo sapiens, MCF7
  IC50: > 200 µM
[3]
  Selectivity index SI MCF-7: 1
[4]; Homo sapiens, MDA-MB-468
  IC50: 95 µM
[4]
  Selectivity index SI MDA-MB-468: 2.1

## O=C1NC(=S)SC1=CN1CCN(c2ccc(Cl)cc2)CC1 [Compound 5, 5-{[4-(4-Chlorophenyl)piperazin-1-yl]methylidene}-2-thioxo-1,3-thiazolidin-4-one]
[1]; Homo sapiens, MDA-MB-231
  IC50: > 200 µM
[1]
  Selectivity index SI MDA-MB-231: 1
[2]; Homo sapiens, T47D
  IC50: > 200 µM
[2]
  Selectivity index SI T47D: 1
[3]; Homo sapiens, MCF7
  IC50: > 200 µM
[3]
  Selectivity index SI MCF-7: 1
[4]; Homo sapiens, MDA-MB-468
  IC50: 168 µM
[4]
  Selectivity index SI MDA-MB-468: 1.19

## O=C1NC(=S)SC1=CN1CCN(C(c2ccc(F)cc2)c2ccc(F)cc2)CC1 [Compound 12, 5-({4-[Bis(4-fluorophenyl)methyl]piperazin-1-yl}methylidene)-2-thioxo-1,3-thiazolidin-4-one]
[1]; Homo sapiens, MDA-MB-231
  IC50: 147 µM
[1]
  Selectivity index SI MDA-MB-231: 1.36
[2]; Homo sapiens, T47D
  IC50: > 200 µM
[2]
  Selectivity index SI T47D: 1
[3]; Homo sapiens, MCF7
  IC50: 36 µM
[3]
  Selectivity index SI MCF-7: 5.56
[4]; Homo sapiens, MDA-MB-468
  IC50: 37 µM
[4]
  Selectivity index SI MDA-MB-468: 5.41

## COc1cccc(N2CCN(C=C3SC(=S)N(c4ccccc4)C3=O)CC2)c1 [Compound 17, 5-{[4-(3-Methoxyphenyl)piperazin-1-yl]methylidene}-3-phenyl-2-thioxo-1,3-thiazolidin-4-one]
[1]; Homo sapiens, MDA-MB-231
  IC50: 118 µM
[1]
  Selectivity index SI MDA-MB-231: 1.69
[2]; Homo sapiens, T47D
  IC50: > 200 µM
[2]
  Selectivity index SI T47D: 1
[3]; Homo sapiens, MCF7
  IC50: 169 µM
[3]
  Selectivity index SI MCF-7: 1.18
[4]; Homo sapiens, MDA-MB-468
  IC50: 58 µM
[4]
  Selectivity index SI MDA-MB-468: 3.45

## 5-{[4-(3-Fluoromethylphenyl)piperazin-1-yl]methylidene}-2-thioxo-1,3-thiazolidin-4-one [Compound 9]
[1]
  Selectivity index SI MDA-MB-231: 1
  IC50: > 200 µM
[2]
  Selectivity index SI T47D: 1
  IC50: > 200 µM
[3]
  Selectivity index SI MCF-7: 2.74
  IC50: 73 µM
[4]
  Selectivity index SI MDA-MB-468: 3.17
  IC50: 63 µM

## O=C1NC(=S)SC1=CN1CCN(c2cccc(F)c2)CC1 [Compound 8, 5-{[4-(3-Fluorophenyl)piperazin-1-yl]methylidene}-2-thioxo-1,3-thiazolidin-4-one]
[1]; Homo sapiens, MDA-MB-231
  IC50: 155 µM
[1]
  Selectivity index SI MDA-MB-231: 1.29
[2]; Homo sapiens, T47D
  IC50: > 200 µM
[2]
  Selectivity index SI T47D: 1
[3]; Homo sapiens, MCF7
  IC50: > 200 µM
[3]
  Selectivity index SI MCF-7: 1
[4]; Homo sapiens, MDA-MB-468
  IC50: > 200 µM
[4]
  Selectivity index SI MDA-MB-468: 1

## O=C1NC(=S)SC1=CN1CCN(c2ccc([N+](=O)[O-])cc2)CC1 [Compound 6, 5-{[4-(4-Nitrophenyl)piperazin-1-yl]methylidene}-2-thioxo-1,3-thiazolidin-4-one]
[1]; Homo sapiens, MDA-MB-231
  IC50: 92 µM
[1]
  Selectivity index SI MDA-MB-231: 2.17
[2]; Homo sapiens, T47D
  IC50: 186 µM
[2]
  Selectivity index SI T47D: 1.08
[3]; Homo sapiens, MCF7
  IC50: > 200 µM
[3]
  Selectivity index SI MCF-7: 1
[4]; Homo sapiens, MDA-MB-468
  IC50: 54 µM
[4]
  Selectivity index SI MDA-MB-468: 3.7
